For experiment [1], the target named is human BCL6 BTB domain (Trx-6×His-BCL6) / BCOR-AF633 peptide (Homo sapiens (Human), UniProt P41182). In words: HTRF assay. The experiment is classed as binding. As to conditions: 1 nM Trx-6×His-BCL6, 300 nM BCOR-AF633 peptide, 2 hours incubation. (In general: Time-resolved FRET reads energy transfer from a long-lived donor to a nearby acceptor.)
Procedure: The % inhibition at each concentration was calculated by normalising FRET ratio to the appropriate high (DMSO with all reagents) and low (DMSO without BCL6) controls.
Experiment [2] addresses endogenous BCL6 protein in SUDHL-4 cells (Homo sapiens (Human), UniProt P41182). The experiment is described as follows: Immunofluorescence-based BCL6 degradation assay (SUDHL4). Format: cell-based. The following applies: 2 hours with compound, DC50 = concentration at which 50% of endogenous BCL6 protein is degraded. As for the experimental part:
DC50 values (compound concentration at which 50% of endogenous BCL6 protein is degraded) were determined in SUDHL-4 cells (American Type Culture Collection) in an immunofluorescence-based assay using an InCell2200 high content imaging system (GE Healthcare). Briefly, 40 μL of lymphoma suspension cells cultured in RPMI 1640-10% FBS (Sigma-Aldrich or PAN Biotech UK Ltd) were platted on fibronectin (Sigma catalogue F1141)-coated 384 well Cell Carrier Ultra plate (Perkin Elmer catalogue 6057300) at 1.2 104 cells/well. After 20 hours cell culture at 37° C./CO2 incubator, compounds were dispensed in the cell culture plate using ECHO550 acoustic dispenser (Labcyte, Inc.), as 8 point-concentration response (ranging from 5 nM to 10 μM) in 0.67% final DMSO concentration. Cells were incubated with compound for 2 hours at 37° C./CO2 incubator followed by fixation in 4.5% formaldehyde (37% formaldehyde solution, Sigma catalogue F8775) at room temperature for 15 min. After fixing, cells were washed in 1×TBS (Tris Buffer Saline) using a Power Washer 384 (Tecan Group Ltd). Blocking and cell permeabilisation were performed by incubating the fixed cells for 1 hour at room temperature in 1×TBS, 5% BSA, 1% Triton X100, followed by three washes on PW384 plate washer. Primary and secondary antibodies were prepared in 1×TBS, 1% BSA, 0.2% Triton X100. BCL6 expression was detected by incubating the cells for 1 h 30 with BCL6 rabbit polyclonal antibody (Sigma Catalogue HPA004899) at 1:250, 0.8 μg/ml, followed by 1 hour in chicken anti-Rabbit Alexa 488 conjugated antibody (Life Technology) at 1:500. After incubation in each antibody, cells were washes four times in 1×TBS-0.05% tween on PW384 plate washer. Cells were finally incubated for 60 min with nuclear staining RedDot2 dye (Biotium) at 0.5× the stock concentration in 1×TBS. BCL6 expression in the absence or presence of compound was detected on InCell2200 with 20× objective and quantified on InCell Analyser 3.7.2 workstation (GE Healthcare). The % response at each concentration was calculated by normalising BCL6 expression in the presence of compound to the appropriate high (DMSO) and low (DMSO with 7 μM of a control compound (5-((5-chloro-2-((3R,5S)-4,4-difluoro-3,5-dimethylpiperidin-1-yl)pyrimidin-4-yl)amino)-3-(3-hydroxy-3-methylbutyl)-1-methyl-1,3-dihydro-2H-benzo[d]imidazol-2-one)) controls.

For experiment [3], the target named is BCL6-NCOR2(SMRT) corepressor protein-protein interaction (Homo sapiens (Human), UniProt P41182). The experiment is described as follows: NanoBRET cell assay. Format: cell-based. As to conditions: read-out: NanoBRET cell avg pIC50 (converted). An excerpt: At 20 hr post-transfection, cells were collected, washed with PBS, and exchanged into media containing phenol red-free OptiMEM+4% FBS (Life Technology).
Background: In BRET a luciferase serves as donor, and the signal depends on an acceptor being close.

9 molecules from patent US20230287003A1, “BCL6 INHIBITORS” (Cancer Research Technology Limited, priority 2018, published 2023) can be followed below.

With `C[C@@H]1CN(c2ncc(Cl)c(Nc3ccc4[nH]c(=O)c5c(c4c3)N[C@@H](C3CC3)CCO5)n2)C[C@H](C)C1(F)F` [Example 5p, (R)-10-((5-chloro-2-((3S,5R)-4,4-difluoro-3,5-dimethylpiperidin-1-yl)pyrimidin-4-yl)amino)-2-cyclopropyl-1,2,3,4-tetrahydro-[1,4]oxazepino[2,3-c]quinolin-6(7H)-one], the “HTRF avg pIC50 (1 nM)” value in experiment [1] is 6.24. The “SUDHL4 avg pDC50” value in experiment [2] came to 6.87.
As for “(R)-10-((5-chloro-2-((3R,5S)-3-hydroxy-5- methylpiperidin-1-yl)pyrimidin-4-yl)amino)-2-cyclopropyl-7- methyl-1,2,3,4-tetrahydro-[1,4]oxazepino[2,3-c]quinolin-6(7H)-one or (R)-10-((5-chloro-2-((3S,5R)-3-hydroxy-5-methylpiperidin-1- yl)pyrimidin-4-yl)amino)-2-cyclopropyl-7-methyl-1,2,3,4-tetrahydro- [1,4]oxazepino[2,3-c]quinolin-6(7H)-one: formic acid (1:2) [Example 12c]”, the “HTRF avg pIC50 (1 nM)” value in experiment [1] came to 8.01. In addition, the “SUDHL4 avg pDC50” value in experiment [2] is recorded as 7.83.
On to `C[C@@H]1CN(c2ncc(Cl)c(Nc3cnc4c(c3)c3c(c(=O)n4C)OCC[C@H](C4CC4)N3)n2)C[C@H](C)C1(F)F` [Example 5t, (R)-10-((5-chloro-2-((3S,5R)-4,4-difluoro-3,5-dimethylpiperidin-1-yl)pyrimidin-4-yl)amino)-2-cyclopropyl-7-methyl-1,2,3,4-tetrahydro-[1,4]oxazepino[2,3-c][1,8]naphthyridin-6(7H)-one], for which, in experiment [1], the “HTRF avg pIC50 (1 nM)” value turned out to be 6.61. Also, the “SUDHL4 avg pDC50” value in experiment [2] is 6.54.
The matching figures for `C[C@@H]1CN(c2ncc(Cl)c(Nc3ccc4c(c3)c3c(c(=O)n4C)OCC[C@H](C4CC4)N3)n2)C[C@H](C)C1(F)F` [Example 5i, (R)-10-((5-chloro-2-((3S,5R)-4,4-difluoro-3,5-dimethylpiperidin-1-yl)pyrimidin-4-yl)amino)-2-cyclopropyl-7-methyl-1,2,3,4-tetrahydro-[1,4]oxazepino[2,3-c]quinolin-6(7H)-one]: 6.70 and 6.79.
`C[C@@H]1C[C@H](C)CN(c2ncc(Cl)c(Nc3ccc4c(c3)c3c(c(=O)n4C)C(=O)OC[C@H](C)N3)n2)C1` [Example 8g, (S)-10-((5-chloro-2-((3R,5S)-3,5-dimethylpiperidin-1-yl)pyrimidin-4-yl)amino)-2,7-dimethyl-2,3-dihydro-[1,4]oxazepino[6,5-c]quinoline-5,6(1H,7H)-dione]: the “HTRF avg pIC50 (1 nM)” value in experiment [1] was determined as 6.55. Further, in experiment [2], the “SUDHL4 avg pDC50” value came out at 6.50. For the same molecule, the IC50 in experiment [3] is 13.5 µM.
For the molecule `C[C@@H]1CN(c2ncc(Cl)c(Nc3ccc4c(c3)c3c(c(=O)n4C)C(=O)OC[C@H](C)N3)n2)C[C@H](C)C1(F)F` [Example 8c, (S)-10-((5-chloro-2-((3S,5R)-4,4-difluoro-3,5-dimethylpiperidin-1-yl)pyrimidin-4-yl)amino)-2,7-dimethyl-2,3-dihydro-[1,4]oxazepino[6,5-c]quinoline-5,6(1H,7H)-dione], the “HTRF avg pIC50 (1 nM)” value in experiment [1] was determined as 6.80. Further, the “SUDHL4 avg pDC50” value in experiment [2] came out at 6.78. Moreover, in experiment [3], the IC50 is 17.8 µM.
With `Cn1c(=O)c2c(c3cc(Nc4nc(N5CCC(F)(F)CC5)ncc4Cl)ccc31)N[C@@H](C1CC1)CCO2` [Example 5m, (R)-10-((5-chloro-2-(4,4-difluoropiperidin-1-yl)pyrimidin-4-yl)amino)-2-cyclopropyl-7-methyl-1,2,3,4-tetrahydro-[1,4]oxazepino[2,3-c]quinolin-6(7H)-one], the “HTRF avg pIC50 (1 nM)” value in experiment [1] was 6.93. Further, the “SUDHL4 avg pDC50” value in experiment [2] is 6.84.
Consider `C[C@@H]1CN(c2ncc(Cl)c(Nc3ccc4c(c3)c3c(c(=O)n4C)OCC[C@H](C)N3)n2)C[C@H](C)C1(F)F` [Example 5f, (S)-10-((5-chloro-2-((3S,5R)-4,4-difluoro-3,5-dimethylpiperidin-1-yl)pyrimidin-4-yl)amino)-2,7-dimethyl-1,2,3,4-tetrahydro-[1,4]oxazepino[2,3-c]quinolin-6(7H)-one], for which, in experiment [1], the “HTRF avg pIC50 (1 nM)” value came out at 6.07. The “SUDHL4 avg pDC50” value in experiment [2] was 6.63. Moreover, the IC50 in experiment [3] was 6.17 µM.
Taken in the same sequence, the figures for `C[C@@H]1C[C@H](C)CN(c2ncc(Cl)c(Nc3ccc4c(c3)c3c(c(=O)n4C)OCC[C@H](C)N3)n2)C1` [Example 5e, (S)-10-((5-chloro-2-((3R,5S)-3,5-dimethylpiperidin-1-yl)pyrimidin-4-yl)amino)-2,7-dimethyl-1,2,3,4-tetrahydro-[1,4]oxazepino[2,3-c]quinolin-6(7H)-one] were 6.18, 6.22 and 5.25 µM.
